Target: T1, human PAH with the R408W mutation (A375 R408W cells) (Homo sapiens, UniProt P00439, R408W)
T1 construct: expressed in transfected cells
T1 sequence (P00439 1-452 R408W): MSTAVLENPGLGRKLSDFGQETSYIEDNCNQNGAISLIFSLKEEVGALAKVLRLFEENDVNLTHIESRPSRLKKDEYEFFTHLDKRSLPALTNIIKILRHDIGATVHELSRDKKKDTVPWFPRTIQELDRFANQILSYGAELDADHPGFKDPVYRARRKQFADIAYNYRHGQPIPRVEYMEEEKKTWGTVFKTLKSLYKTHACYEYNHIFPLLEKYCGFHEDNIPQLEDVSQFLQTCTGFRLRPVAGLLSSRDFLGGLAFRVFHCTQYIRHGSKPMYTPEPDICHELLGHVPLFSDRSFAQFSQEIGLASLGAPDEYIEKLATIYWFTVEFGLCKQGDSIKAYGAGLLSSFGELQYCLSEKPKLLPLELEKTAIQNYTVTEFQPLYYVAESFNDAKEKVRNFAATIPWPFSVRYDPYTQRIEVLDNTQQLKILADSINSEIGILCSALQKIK
Experiment: Cell Based Phenylalanine Flux Assay
Conditions: A375 cells expressing R408W PAH; 24 hrs with compound, then 20 μM sepiapterin and 800 μM 13C9,15N-Phenylalanine for 4 hours; 13C-Tyrosine by LC-MS; average where tested multiple times
Description: Cells expressing R408W PAH were made by transducing A375 cells with lentivirus encoding human PAH with the R408W mutation in pLVX-Puro, then selecting with puromycin until stable cell lines were generated. A375 R408W cells were seeded into 96 well plates in DMEM+10% FBS at a density of 40,000 cells/well one hour prior to compound addition. Compounds were resuspended in DMSO, and 2-fold serial dilutions were performed to generate a 10-point dose curve. Compounds were added to plated cells in a total volume of 100 μl, and a final DMSO concentration of 0.5%. Each compound was tested in duplicate. Following compound addition, cells were placed in a 5% CO2, 37° C. tissue culture incubator for 24 hrs. After the incubation period, 20 μM sepiapterin and 800 μM 13C9,15N-Phenylalanine were added. After 4 hours, cell media was removed. An aliquot of 10 μl of cell media was combined with 200 μl of extraction buffer (80% acetonitrile/20% H2O) for each well. Determination of ^13C-Tyrosine concentration was assessed by liquid chromatography mass spectrometry.
Specific compounds disclosed herein were tested in the foregoing assay and they were determined to have an AC50 according to the following scores: (A) less than or equal to 0.500 μM, (B) greater than 0.500 and less than […], (C) greater than or equal to 1.000 and less than 5.000 μM, (D) greater than or equal to 5.000 μM, (E) no fit, and (NT) not tested, as shown below. Where a compound was tested multiple times, the average value of the tests is reported.

| AC50 | Compound |
| --- | --- |
| ≥ 5 µM | Nc1cc(C(=O)N2CCc3[nH]cnc3C2c2nc3cc(F)ccc3o2)n(C(F)F)n1 (stereo not drawn) [listing 1 of 2 here] |
| ≥ 5 µM | CC(C)(O)c1cc(C(=O)N2CCc3[nH]cnc3C2c2nc3ccc(F)cc3o2)no1 (stereo not drawn) [listing 1 of 2 here] |
| ≥ 5 µM | CC(C)(O)c1nc(Br)c(C(=O)N2CCc3[nH]cnc3C2c2nc3cc(F)ccc3o2)s1 (stereo not drawn) [listing 1 of 2 here] |
| ≥ 5 µM | CC(C)(O)c1cc(C(=O)N2CCc3[nH]cnc3C2c2nc3cc(F)ccc3o2)sn1 (stereo not drawn) |
| ≥ 5 µM | Cc1nc(C(C)(C)O)oc1C(=O)N1CCc2[nH]cnc2C1c1nc2ccc(F)cc2o1 (stereo not drawn) [listing 1 of 2 here] |
| ≥ 5 µM | N#Cc1ccc2c(C(=O)N3CCc4[nH]cnc4C3c3nc4cc(F)ccc4o3)cnn2c1 (stereo not drawn) [listing 1 of 2 here] |
| ≥ 5 µM | Cn1ccc(C(=O)N2CCc3[nH]cnc3C2c2nc3cc(F)ccc3o2)n1 (stereo not drawn) [listing 1 of 2 here] |
| ≥ 5 µM | Cc1nc(-c2cnn(C)c2)sc1C(=O)N1CCc2[nH]cnc2C1c1nc2cc(F)ccc2o1 (stereo not drawn) [listing 1 of 2 here] |
| ≥ 5 µM | O=C(c1nnc(-c2c[nH]nc2C(F)(F)F)o1)N1CCc2[nH]cnc2C1c1nc2cc(F)ccc2o1 (stereo not drawn) [listing 1 of 2 here] |
| ≥ 5 µM | O=C(c1cnn2cc(N3CCC(F)CC3)ccc12)N1CCc2[nH]cnc2C1c1nc2cc(F)ccc2o1 (stereo not drawn) [listing 1 of 2 here] |
| ≥ 5 µM | Cn1cc(-c2ncc(C(=O)N3CCc4[nH]cnc4C3c3nc4ccc(Br)cc4o3)o2)cn1 (stereo not drawn) [listing 1 of 2 here] |
| ≥ 5 µM | Cn1ncnc1C(=O)N1CCc2[nH]cnc2C1c1nc2ccc(F)cc2o1 (stereo not drawn) [listing 1 of 2 here] |
| ≥ 5 µM | Cn1nc(C(F)(F)F)nc1C(=O)N1CCc2[nH]cnc2C1c1nc2ccc(F)cc2o1 (stereo not drawn) [listing 1 of 2 here] |
| ≥ 5 µM | O=C(c1cnco1)N1CCc2[nH]cnc2C1c1nc2ccc(F)cc2o1 (stereo not drawn) [listing 1 of 2 here] |
| ≥ 5 µM | Cn1cnnc1C(=O)N1CCc2[nH]cnc2C1c1nc2ccc(F)cc2o1 (stereo not drawn) [listing 1 of 2 here] |
| ≥ 5 µM | COCc1ccc2c(C(=O)N3CCc4[nH]cnc4C3c3nc4ccc(F)cc4o3)cnn2c1 (stereo not drawn) [listing 1 of 2 here] |
| ≥ 5 µM | Nc1cc2c(C(=O)N3CCc4[nH]cnc4C3c3nc4cc(F)ccc4o3)cnn2cc1F (stereo not drawn) [listing 1 of 2 here] |
| ≥ 5 µM | Cc1nc(C(C)O)oc1C(=O)N1CCc2[nH]cnc2C1c1nc2ccc(F)cc2o1 (stereo not drawn) [listing 1 of 2 here] |
| ≥ 5 µM | Cc1nc(C(C)O)oc1C(=O)N1CCc2[nH]cnc2C1c1nc2c(F)cccc2o1 (stereo not drawn) [listing 1 of 2 here] |
| ≥ 5 µM | Cc1nc(C(C)(C)N(C)C)oc1C(=O)N1CCc2[nH]cnc2C1c1nc2cc(F)ccc2o1 (stereo not drawn) [listing 1 of 2 here] |
| ≥ 5 µM | Cc1ccc2oc(C3c4nc[nH]c4CCN3C(=O)c3cnn4cc(CCN(C)C)ccc34)nc2c1 (stereo not drawn) [listing 1 of 2 here] |
| 1 to 5 µM | O=C(c1cnn2cc(N3CCC(O)CC3)ccc12)N1CCc2[nH]cnc2C1c1nc2cc(F)ccc2o1 (stereo not drawn) |
| ≥ 5 µM | CC(C)(O)Cn1cc(C(=O)N2CCc3[nH]cnc3C2c2nc3cc(F)ccc3o2)cn1 (stereo not drawn) |

| AC50 | Compound |
| --- | --- |
| 1 to 5 µM | Nc1cc(C(=O)N2CCc3[nH]cnc3C2c2nc3cc(F)ccc3o2)n(C(F)F)n1 (stereo not drawn) [listing 2 of 2 here] |
| ≥ 5 µM | CC(C)(O)c1cc(C(=O)N2CCc3[nH]cnc3C2c2nc3cc(F)ccc3o2)no1 (stereo not drawn) |
| 1 to 5 µM | CC(C)(O)c1cc(C(=O)N2CCc3[nH]cnc3C2c2nc3ccc(F)cc3o2)no1 (stereo not drawn) [listing 2 of 2 here] |
| 1 to 5 µM | CC(C)(O)c1cc(C(=O)N2CCc3[nH]cnc3C2c2nc3cccc(F)c3o2)no1 (stereo not drawn) |
| 1 to 5 µM | CC(C)(O)c1nc(C(F)F)c(C(=O)N2CCc3[nH]cnc3C2c2nc3cc(F)ccc3o2)s1 (stereo not drawn) |
| 1 to 5 µM | CC(C)(O)c1nc(Br)c(C(=O)N2CCc3[nH]cnc3C2c2nc3cc(F)ccc3o2)s1 (stereo not drawn) [listing 2 of 2 here] |
| 1 to 5 µM | O=C(c1oc(C2CCN2)nc1C(F)F)N1CCc2[nH]cnc2C1c1nc2cc(F)ccc2o1 (stereo not drawn) |
| 1 to 5 µM | Cn1nc(Cl)nc1C(=O)N1CCc2[nH]cnc2C1c1nc2cc(F)ccc2o1 (stereo not drawn) |
| 1 to 5 µM | CC(C)(O)c1cc(C(=O)N2CCc3[nH]cnc3C2c2nc3c(F)cccc3o2)on1 (stereo not drawn) |
| ≥ 5 µM | CC(C)(O)c1noc(C(=O)N2CCc3[nH]cnc3C2c2nc3c(F)cccc3o2)n1 (stereo not drawn) |
| 1 to 5 µM | CC(C)(O)c1ncc(C(=O)N2CCc3[nH]cnc3C2c2nc3cc(F)ccc3o2)o1 (stereo not drawn) |
| ≥ 5 µM | CC(C)(O)c1noc(C(=O)N2CCc3[nH]cnc3C2c2nc3cc(F)ccc3o2)n1 (stereo not drawn) |
| 1 to 5 µM | CC(C)(O)c1ncc(C(=O)N2CCc3[nH]cnc3C2c2nc3cc(F)ccc3o2)s1 (stereo not drawn) |
| ≥ 5 µM | CC(C)(O)c1noc(C(=O)N2CCc3[nH]cnc3C2c2nc3ccc(F)cc3o2)n1 (stereo not drawn) |
| 1 to 5 µM | Cc1nc(C(C)(C)O)oc1C(=O)N1CCc2[nH]cnc2C1c1nc2ccc(F)cc2o1 (stereo not drawn) [listing 2 of 2 here] |
| 1 to 5 µM | CC(C)(O)c1cc(C(=O)N2CCc3[nH]cnc3C2c2nc3cccc(F)c3o2)on1 (stereo not drawn) |
| 1 to 5 µM | CC(C)(c1nc(C(F)F)c(C(=O)N2CCc3[nH]cnc3C2c2nc3cc(F)ccc3o2)o1)S(C)(=O)=O (stereo not drawn) |
| 1 to 5 µM | O=C(c1nncn1C1CC1)N1CCc2[nH]cnc2C1c1nc2cccc(F)c2o1 (stereo not drawn) |
| 1 to 5 µM | O=C(c1cn[nH]c1Cl)N1CCc2[nH]cnc2C1c1nc2cc(F)ccc2o1 (stereo not drawn) |
| 1 to 5 µM | N#Cc1ccc2c(C(=O)N3CCc4[nH]cnc4C3c3nc4cc(F)ccc4o3)cnn2c1 (stereo not drawn) [listing 2 of 2 here] |
| ≥ 5 µM | O=C(c1cnn2cc(N3CCS(=O)(=O)CC3)ccc12)N1CCc2[nH]cnc2C1c1nc2cc(F)ccc2o1 (stereo not drawn) |
| 1 to 5 µM | Cn1ncnc1C(=O)N1CCc2[nH]cnc2C1c1nc2c(F)cccc2o1 (stereo not drawn) |
| 1 to 5 µM | Cn1nc(C(F)(F)F)nc1C(=O)N1CCc2[nH]cnc2C1c1nc2c(F)cccc2o1 (stereo not drawn) |

| AC50 | Compound |
| --- | --- |
| ≥ 5 µM | Cn1nc(N)cc1C(=O)N1CCc2[nH]cnc2C1c1nc2cc(F)ccc2o1 (stereo not drawn) |
| 1 to 5 µM | Cn1ccc(C(=O)N2CCc3[nH]cnc3C2c2nc3cc(F)ccc3o2)n1 (stereo not drawn) [listing 2 of 2 here] |
| 1 to 5 µM | Cn1nc(C(F)(F)F)nc1C(=O)N1CCc2[nH]cnc2C1c1nc2cc(F)ccc2o1 (stereo not drawn) |
| ≥ 5 µM | O=C(c1ccn[nH]1)N1CCc2[nH]cnc2C1c1nc2cc(F)ccc2o1 (stereo not drawn) |
| 1 to 5 µM | Cc1nc(-c2cnn(C)c2)sc1C(=O)N1CCc2[nH]cnc2C1c1nc2cc(F)ccc2o1 (stereo not drawn) [listing 2 of 2 here] |
| ≥ 5 µM | Cc1nc(-c2ccccn2)sc1C(=O)N1CCc2[nH]cnc2C1c1nc2cc(F)ccc2o1 (stereo not drawn) |
| 1 to 5 µM | O=C(c1nnc(-c2c[nH]nc2C(F)(F)F)o1)N1CCc2[nH]cnc2C1c1nc2cc(F)ccc2o1 (stereo not drawn) [listing 2 of 2 here] |
| 1 to 5 µM | O=C(c1cnn2cc(N3CCC(F)CC3)ccc12)N1CCc2[nH]cnc2C1c1nc2cc(F)ccc2o1 (stereo not drawn) [listing 2 of 2 here] |
| 1 to 5 µM | Cn1cc(-c2ncc(C(=O)N3CCc4[nH]cnc4C3c3nc4ccc(Br)cc4o3)o2)cn1 (stereo not drawn) [listing 2 of 2 here] |
| 1 to 5 µM | Cn1ncnc1C(=O)N1CCc2[nH]cnc2C1c1nc2ccc(F)cc2o1 (stereo not drawn) [listing 2 of 2 here] |
| 1 to 5 µM | Cn1nc(C(F)(F)F)nc1C(=O)N1CCc2[nH]cnc2C1c1nc2ccc(F)cc2o1 (stereo not drawn) [listing 2 of 2 here] |
| 1 to 5 µM | O=C(c1cnco1)N1CCc2[nH]cnc2C1c1nc2ccc(F)cc2o1 (stereo not drawn) [listing 2 of 2 here] |
| 1 to 5 µM | Cn1cnnc1C(=O)N1CCc2[nH]cnc2C1c1nc2ccc(F)cc2o1 (stereo not drawn) [listing 2 of 2 here] |
| 1 to 5 µM | Cn1cc(-c2nnc(C(=O)N3CCc4[nH]cnc4C3c3nc4ccc(F)cc4o3)o2)cn1 (stereo not drawn) |
| 1 to 5 µM | COCc1ccc2c(C(=O)N3CCc4[nH]cnc4C3c3nc4ccc(F)cc4o3)cnn2c1 (stereo not drawn) [listing 2 of 2 here] |
| 1 to 5 µM | Nc1cc2c(C(=O)N3CCc4[nH]cnc4C3c3nc4cc(F)ccc4o3)cnn2cc1F (stereo not drawn) [listing 2 of 2 here] |
| 1 to 5 µM | Cn1ncnc1C(=O)N1CCc2[nH]cnc2C1c1nc2cccc(F)c2o1 (stereo not drawn) |
| 1 to 5 µM | Cc1nc(C(C)O)oc1C(=O)N1CCc2[nH]cnc2C1c1nc2ccc(F)cc2o1 (stereo not drawn) [listing 2 of 2 here] |
| 1 to 5 µM | Cc1nc(C(C)O)oc1C(=O)N1CCc2[nH]cnc2C1c1nc2c(F)cccc2o1 (stereo not drawn) [listing 2 of 2 here] |
| 1 to 5 µM | Cc1nc(C(C)(C)N(C)C)oc1C(=O)N1CCc2[nH]cnc2C1c1nc2cc(F)ccc2o1 (stereo not drawn) [listing 2 of 2 here] |
| 1 to 5 µM | Cc1ccc2oc(C3c4nc[nH]c4CCN3C(=O)c3cnn4cc(CCN(C)C)ccc34)nc2c1 (stereo not drawn) [listing 2 of 2 here] |

| Compound | AC50 |
| --- | --- |
| CC(C)(O)c1cc(C(=O)N2CCc3[nH]cnc3C2c2nc3ccc(F)cc3o2)on1 (stereo not drawn) | 1 to 5 µM |
| CNC(C)(C)c1nc(C)c(C(=O)N2CCc3[nH]cnc3C2c2nc3cc(F)ccc3o2)o1 (stereo not drawn) | 1 to 5 µM |

Reference: patent US20250171437A1 (Agios Pharmaceuticals,Inc., priority 2022, published 2025)
